The values that follow come from US4250176A, “Piperazine derivatives” (priority 1979, dated 1981).

Molecules are shown by their SMILES. Values after ≈ are worked out from the molar mass of the structure shown. Structures can show the parent of a compound that is named as a salt. Where two headings read alike, the source gives them in different places. Where only a bound is given, the exact number is not on record here.

Assay [1] has as its system histamine paw oedema in guinea pigs. Kind of assay: Histamine paw oedema in guinea pigs. The assay is classed as in vivo, guinea pig. The conditions noted are these: Cavia porcellus, oral dose giving paw reaction below 10 units 10 minutes after 50 μg histamine s.p., 2 hours after dosing, read-out: Anaphylaxis in guinea pigs oral effective dose in mg/kg: Histamine oedema. How it is done: Guinea pigs, weighing between 400 and 500 g, are sensitized to ovalbumin by subplantar (s.p.) injection of 0.05 ml of antiserum in the left hind paw. The animals are then starved and orally treated, 24 hours after the sensitization, with saline (=control animals) or a particular dose of the compound under investigation. The histamine injection (at a dose of 50 μg) was given s.p. in the right hind paw 2 hours after the oral pretreatment with the compound.

Assay [2] has as its system Guinea-pig ileum strips, histamine-induced contraction. Briefly: Anti-histamine activity in "vitro": histamine-induced spasms of guinea-pig ileum strips. The assay is classed as cell-based. The conditions noted are these: Cavia porcellus, 5 min, histamine 0.5 mg/liter, 5 minutes incubation, concentration giving significant inhibition (50%) of the contraction. How it is done:
The histamine--(0.5 mg/liter) induced spasms are recorded Kymographically with an isotonic lever giving a 5-fold magnification.

Assay [3] has as its system Guinea pigs sensitized to ovalbumin (anaphylactic shock). Briefly: Anaphylaxis in guinea pigs: protection against death after ovalbumin challenge (survival). The assay is classed as in vivo, guinea pig. As to conditions: Cavia porcellus, estimated ED50, oral, protection against death after i.v. 0.6 mg ovalbumin, read-out: Anaphylaxis in guinea pigs oral effective dose in mg/kg: Survival. As to the method: The anti-anaphylactic and antihistaminic effects of the subject compounds (I) and salts thereof are studied "in vivo" in guinea pigs.
Guinea pigs, weighing between 400 and 500 g, are sensitized to ovalbumin by subplantar (s.p.) injection of 0.05 ml of antiserum in the left hind paw. The animals are then starved and orally treated, 24 hours after the sensitization, with saline (=control animals) or a particular dose of the compound under investigation.
The histamine injection (at a dose of 50 μg) was given s.p. in the right hind paw 2 hours after the oral pretreatment with the compound. The diameters of both hind paws are first measured before the histamine injection is given and again 10 minutes thereafter. The animals are challenged intravenously with 0.6 mg of ovalbumin 30 minutes after the histamine injection. All control animals develop typical primary anaphylactic shock symptoms (coughing, difficult breathing, convulsions) and 85% of these control animals die within 15 minutes after the ovalbumin injection. Protection against death is used as the criterion for possible drug effects and the estimated ED50 -value, i.e. the oral dose whereby the protection is observed in 50% of the guinea pigs, is listed in the tables below.

Setting [4] is: Table I-a, read-out: Histamine in "vitro" (ileum) effective conc.
The mark [5] stands for this setting: Table I-d, read-out: Histamine in "vitro" (ileum) effective dose.

For the compound `O=c1[nH]c2ccccc2n1CCN1CCN(C(c2ccccc2)c2ccc(F)cc2)CC1` (stereo not drawn) [1-[2-{4-[α-(4-fluorophenyl)-α-phenylmethyl]-1-piperazinyl}ethyl]-1,3-dihydro-2H-benzimidazol-2-one], in assay [1] (Table I-a), the minimal effective dose came to 0.16 mg/kg. The IC50 in assay [2] (setting [4]) is 0.02 µg/mL (≈ 0.0465 µM). The ED50 in assay [3] (Table I-a) is 0.31 mg/kg.
On the same counts, the results for `O=c1[nH]c2ccccc2n1CCCN1CCN(C(c2ccccc2)c2ccccc2F)CC1` (stereo not drawn) [1-[3-{4-[(2-fluorophenyl)phenylmethyl]-1-piperazinyl}propyl]-1,3-dihydro-2H-benzimidazol-2-one] are less than 2.5 mg/kg, 0.02 µg/mL (≈ 0.045 µM) and less than 2.5 mg/kg.
In the case of `O=c1[nH]c2ccccc2n1CCCN1CCN(C(c2ccccc2)c2ccc(Br)cc2)CC1` (stereo not drawn) [1-[3-{4-[(4-bromophenyl)phenylmethyl]-1-piperazinyl}propyl]-1,3-dihydro-2H-benzimidazol-2-one], the minimal effective dose in assay [1] (Table I-a) was less than 2.5 mg/kg. In addition, the IC50 in assay [2] (setting [4]) was 0.16 µg/mL (≈ 0.317 µM). The ED50 in assay [3] (Table I-a) is less than 2.5 mg/kg.
Turning to `Cc1ccc(C(c2ccc(F)cc2)N2CCN(CCCn3c(=O)[nH]c4ccccc43)CC2)cc1` (stereo not drawn) [1-[3-{4-[(4-fluorophenyl)-(4-methylphenyl)methyl]-1-piperazinyl}propyl]-1,3-dihydro-2H-benzimidazol-2-one], the minimal effective dose in assay [1] (Table I-a) is less than 2.5 mg/kg. Moreover, the IC50 in assay [2] (setting [4]) was determined as 0.16 µg/mL (≈ 0.349 µM). For the same compound, in assay [3] (Table I-a), the ED50 was less than 2.5 mg/kg.
On to `O=c1[nH]c2ccccc2n1CCCN1CCN(C(c2ccc(Cl)cc2)c2ccc(Cl)cc2)CC1` [1-[3-{4-[bis(4-chlorophenyl)methyl]-1-piperazinyl}propyl]-1,3-dihydro-2H-benzimidazol-2-one], for which, in assay [1] (Table I-a), the minimal effective dose is less than 2.5 mg/kg. The IC50 in assay [2] (setting [4]) was 0.16 µg/mL (≈ 0.323 µM). Moreover, the ED50 in assay [3] (Table I-a) is less than 2.5 mg/kg.
`O=c1[nH]c2ccccc2n1CCCN1CCC(OC(c2ccc(F)cc2)c2ccc(F)cc2)CC1` [1-[3-{4-[bis(4-fluorophenyl)methoxy]-1-piperidinyl}propyl]-1,3-dihydro-2H-benzimidazol-2-one hydrochloride.hemihydrate]: in assay [1] (Table I-d), the minimal effective dose worked out at 0.63 mg/kg. In addition, the IC50 in assay [2] (setting [5]) was 0.0025 µg/mL. Also, the ED50 in assay [3] (Table I-d) was 0.63 mg/kg.
As for `CC(CN1CCN(C(c2ccc(F)cc2)c2ccc(F)cc2)CC1)Cn1c(=O)[nH]c2ccccc21` (stereo not drawn) [1-[3-{4-[bis(4-fluorophenyl)methyl]-1-piperazinyl}-2-methylpropyl]-1,3-dihydro-2H-benzimidazol-2-one], in assay [1] (Table I-a), the minimal effective dose was found to be 1.25 mg/kg. Moreover, the IC50 in assay [2] (setting [4]) was found to be 0.02 µg/mL (≈ 0.042 µM). Also, the ED50 in assay [3] (Table I-a) is 1.25 mg/kg.
In the case of `CC(CN1CCN(C(c2ccc(F)cc2)c2ccc(F)cc2)CC1)Cn1cnc2ccccc21` (stereo not drawn) [1-[3-{4-[bis(4-fluorophenyl)methyl]-1-piperazinyl}-2-methylpropyl]-1H-benzimidazole trihydrochloride.hemihydrate], the minimal effective dose in assay [1] (Table I-b) was 1.25 mg/kg. In addition, in assay [2] (Table I-b, read-out: Histamine in "vitro" (ileum) effective conc.), the IC50 was 0.02 µg/mL. Also, the ED50 in assay [3] (Table I-b) was 0.63 mg/kg.
`O=c1[nH]c2ccccc2n1CCCN1CCN(C(c2ccc(F)cc2)c2ccc(F)cc2)CC1` [1-[3-{4-[bis(4-fluorophenyl)methyl]-1-piperazinyl}propyl]-1,3-dihydro-2H-benzimidazol-2-one]: the minimal effective dose in assay [1] (Table I-a) turned out to be 0.16 mg/kg. For the same compound, the IC50 in assay [2] (setting [4]) was determined as 0.01 µg/mL (≈ 0.0216 µM). In assay [3] (Table I-a), the ED50 is 0.31 mg/kg.
The like results for `O=c1[nH]c2cc(Cl)ccc2n1CCCN1CCN(C(c2ccc(F)cc2)c2ccc(F)cc2)CC1` [1-[3-{4-[bis(4-fluorophenyl)methyl]-1-piperazinyl}propyl]-5-chloro-1,3-dihydro-2H-benzimidazol-2-one] were, in that order, 1.25 mg/kg, 0.04 µg/mL (≈ 0.0805 µM) and 1.25 mg/kg.
As for `O.O=c1[nH]c2ccc(Cl)cc2n1CCCN1CCN(C(c2ccc(F)cc2)c2ccc(F)cc2)CC1` [1-[3-{4-[bis(4-fluorophenyl)methyl]-1-piperazinyl}propyl]-6-chloro-1,3-dihydro-2H-benzimidazol-2-one hydrate], the minimal effective dose in assay [1] (Table I-a) is 1.25 mg/kg. Moreover, the IC50 in assay [2] (setting [4]) amounted to 0.02 µg/mL. In addition, the ED50 in assay [3] (Table I-a) is 0.63 mg/kg.
Consider `O=c1[nH]c2ccccc2n1CCCN1CCN(C(c2ccccc2)c2cccc(Cl)c2)CC1` (stereo not drawn) [1-[3-{4-[α-(3-chlorophenyl-α-phenylmethyl]-1-piperazinyl}propyl]-1,3-dihydro-2H-benzimidazol-2-one], for which the minimal effective dose in assay [1] (Table I-a) is 1.25 mg/kg. Besides, the IC50 in assay [2] (setting [4]) stood at 0.01 µg/mL (≈ 0.0217 µM). Moreover, the ED50 in assay [3] (Table I-a) was 0.63 mg/kg.
The like results for `O=c1[nH]c2ccccc2n1CCCN1CCN(C(c2ccc(Cl)cc2)c2ccccc2F)CC1` (stereo not drawn) [1-[3-{4-[α-(4-chlorophenyl)-α-(2-fluorophenyl)]-1-piperazinyl}propyl]-1,3-dihydro-2H-benzimidazol-2-one] were, in that order, 1.25 mg/kg, 0.02 µg/mL (≈ 0.0418 µM) and 0.31 mg/kg.
In the case of `O=c1[nH]c2ccccc2n1CCCN1CCN(C(c2ccccc2)c2ccc(Cl)cc2)CC1` (stereo not drawn) [1-[3-{4-[α-(4-chlorophenyl)-α-phenylmethyl]-1-piperazinyl}propyl]-1,3-dihydro-2H-benzimidazol-2-one], the minimal effective dose in assay [1] (Table I-a) amounted to 0.63 mg/kg. The IC50 in assay [2] (setting [4]) is 0.01 µg/mL (≈ 0.0217 µM). Also, in assay [3] (Table I-a), the ED50 is 1.25 mg/kg.
On to `O=c1[nH]c2ccccc2n1CCCN1CCN(C(c2ccccc2)c2ccc(F)cc2)CC1` (stereo not drawn) [1-[3-{4-[α-(4-fluorophenyl)-α-phenylmethyl]-1-piperazinyl}propyl]-1,3-dihydro-2H-benzimidazol-2-one], for which the minimal effective dose in assay [1] (Table I-a) turned out to be 0.31 mg/kg. Moreover, in assay [2] (setting [4]), the IC50 is 0.01 µg/mL (≈ 0.0225 µM). Further, the ED50 in assay [3] (Table I-a) is 0.31 mg/kg.
For the compound `O=c1[nH]c2ccccc2n1CCCCN1CCN(C(c2ccc(F)cc2)c2ccc(F)cc2)CC1` [1-[4-{4-[bis(4-fluorophenyl)methyl]-1-piperazinyl}-butyl]-1,3-dihydro-2H-benzimidazol-2-one dihydrochloride.hydrate.hemiethanolate], the minimal effective dose in assay [1] (Table I-a) was found to be 0.31 mg/kg. The IC50 in assay [2] (setting [4]) came to 0.01 µg/mL. Also, in assay [3] (Table I-a), the ED50 was 0.16 mg/kg.
As for `O=c1[nH]c2ccccc2n1CCCCCN1CCN(C(c2ccc(F)cc2)c2ccc(F)cc2)CC1` [1-[5-{4-[bis(4-fluorophenyl)-methyl]-1-piperazinyl}pentyl]-1,3-dihydro-2H-benzimidazol-2-one dihydrochloride.hydrate], the minimal effective dose in assay [1] (Table I-a) came to 2.5 mg/kg. In addition, in assay [2] (setting [4]), the IC50 was determined as 0.01 µg/mL. Besides, the ED50 in assay [3] (Table I-a) was 1.25 mg/kg.
With `CC(=O)n1c(=O)n(CCCN2CCN(C(c3ccccc3)c3ccccc3)CC2)c2ccccc21` [1-acetyl-3-{3-[4-(diphenylmethyl)-1-piperazinyl]propyl}-1,3-dihydro-2H-benzimidazol-2-one], in assay [1] (Table I-a), the minimal effective dose was 0.31 mg/kg. Further, in assay [2] (setting [4]), the IC50 turned out to be 0.005 µg/mL (≈ 0.0107 µM). Moreover, the ED50 in assay [3] (Table I-a) was 0.1 mg/kg.
For the compound `Cl.O=c1[nH]c2ccccc2n1CCN1CCC(OC(c2ccccc2)c2ccccc2)CC1` [1-{2-[4-(diphenylmethoxy)-1-piperidinyl]ethyl}-1,3-dihydro-2H-benzimidazol-2-one hydrochloride], the minimal effective dose in assay [1] (Table I-d) was 0.16 mg/kg. Further, the IC50 in assay [2] (setting [5]) worked out at 0.0025 µg/mL. Also, in assay [3] (Table I-d), the ED50 was 0.31 mg/kg.
Consider `O=c1[nH]c2cc(C(F)(F)F)ccc2n1CCN1CCN(C(c2ccccc2)c2ccccc2)CC1` [1-{2-[4-(diphenylmethyl)-1-piperazinyl]ethyl}-1,3-dihydro-5-(trifluoromethyl)-2H-benzimidazol-2-one], for which the minimal effective dose in assay [1] (Table I-a) came out at 1.25 mg/kg. The IC50 in assay [2] (setting [4]) turned out to be 0.02 µg/mL (≈ 0.0416 µM). Besides, in assay [3] (Table I-a), the ED50 was 0.31 mg/kg.
